# Test results: ChEMBL document CHEMBL1140199, “Synthesis and antimicrobial activity of 2-alkenylchroman-4-ones, 2-alkenylthiochroman-4-ones and 2-alkenylquinol-4-ones” (2008)
# Activity calls are given as the source filed them. No cut-off for these calls is given here.
# Legend:
# Assay type in all cases: functional
# Candida maltosa = test: Antimicrobial activity against Candida maltosa; for IZ: test concentration or dose not given here
# Staphylococcus aureus = test: Antimicrobial activity against Staphylococcus aureus ATCC 6538; conditions: for MIC: Staphylococcus aureus, ATCC 6538; for IZ: test concentration or dose not given here
# Escherichia coli = test: Antimicrobial activity against Escherichia coli ATCC 11229; for IZ: test concentration or dose not given here
# Bacillus subtilis = test: Antimicrobial activity against Bacillus subtilis ATCC 6051; for IZ: test concentration or dose not given here
Molecule,Activity (Candida maltosa),Activity (Staphylococcus aureus),inhibition zone (IZ) (Escherichia coli),Activity (Bacillus subtilis),Activity (Escherichia coli),further results
C/C=C/C1CC(=O)c2cc(Cl)ccc2O1 (stereo not given),inactive,inactive,10 mm,inactive,,
C=CC1CC(=O)c2cc(F)ccc2N1C(=O)OC (stereo not given),inactive,inactive,,inactive,inactive,
CC1(C)S[C@@H]2[C@H](NC(=O)[C@H](N)c3ccccc3)C(=O)N2[C@H]1C(=O)O [AMPICILLIN],,,19 mm,,,inhibition zone (IZ) (Staphylococcus aureus): 27 mm; inhibition zone (IZ) (Bacillus subtilis): 25 mm
C/C=C(\C)C1CC(=O)c2cc(Cl)ccc2O1 (stereo not given),inactive,inactive,,inactive,inactive,
C=CC1CC(=O)c2c(Cl)cc(Cl)cc2N1C(=O)OC (stereo not given),inactive,inactive,,inactive,inactive,
C/C=C(\C)C1CC(=O)c2cc(Br)ccc2O1 (stereo not given),inactive,inactive,,inactive,inactive,
C=CC1CC(=O)c2cc(Br)ccc2O1 (stereo not given),,,,,,MIC (Staphylococcus aureus): 5.62 µg/mL
C=CC1CC(=O)c2cc(Cl)ccc2O1 (stereo not given),,,17 mm,,,"inhibition zone (IZ) (Candida maltosa): 40 mm; inhibition zone (IZ) (Staphylococcus aureus): 40 mm; MIC (Staphylococcus aureus): 7.3 µg/mL; MIC (Escherichia coli; Escherichia coli, ATCC 11229): 4.17 µg/mL; inhibition zone (IZ) (Bacillus subtilis): 29 mm; MIC (Bacillus subtilis; Bacillus subtilis, ATCC 6051): 4.17 µg/mL"
C=CC1CC(=O)c2ccccc2O1 (stereo not given),inactive,inactive,,inactive,inactive,
C=CC1CC(=O)c2ccccc2S1 (stereo not given),,inactive,,inactive,inactive,inhibition zone (IZ) (Candida maltosa): 6 mm
C=C(C)C1CC(=O)c2ccccc2O1 (stereo not given),inactive,inactive,10 mm,inactive,,
NYSTATIN,,,,,,inhibition zone (IZ) (Candida maltosa): 28 mm
C=CC1CC(=O)c2cc(Cl)ccc2S1 (stereo not given),,inactive,,inactive,inactive,inhibition zone (IZ) (Candida maltosa): 6 mm
C=C(C)C1CC(=O)c2cc(Br)ccc2O1 (stereo not given),inactive,,8 mm,inactive,,inhibition zone (IZ) (Staphylococcus aureus): 16 mm
C=C(C)C1CC(=O)c2ccccc2S1 (stereo not given),inactive,inactive,,inactive,inactive,
C=C(C)C1CC(=O)c2cc(Cl)ccc2O1 (stereo not given),inactive,,9 mm,inactive,,inhibition zone (IZ) (Staphylococcus aureus): 17 mm
C=CC1CC(=O)c2cc(Cl)ccc2N1C(=O)OC (stereo not given),inactive,inactive,,inactive,inactive,
C=C(C)C1CC(=O)c2cc(Cl)ccc2N1C(=O)OC (stereo not given),inactive,inactive,,inactive,inactive,
C=C(C)C1CC(=O)c2cc(Cl)ccc2S1 (stereo not given),inactive,inactive,,inactive,inactive,
C/C=C/C1CC(=O)c2cc(Br)ccc2O1 (stereo not given),inactive,inactive,9 mm,inactive,,
C=CC1CC(=O)c2cc(Br)ccc2N1C(=O)OC (stereo not given),inactive,inactive,,inactive,inactive,
